The values below come from ChEMBL document CHEMBL1157539, “Thousands of chemical starting points for antimalarial lead identification” (Nature, 2010).

The structures appear in SMILES notation.

The subject of this assay is Plasmodium falciparum. As to the kind of experiment: GSK_TCMDC: Inhibition of Plasmodium falciparum 3D7 in whole erythrocytes, using parasite LDH activity as an index of growth. In kind it is functional, organism-based. The settings on record: Plasmodium falciparum, 3D7.
As to `C=CCOc1ccccc1CNCC(O)c1cc(Br)cs1` (configuration not stated), the XC50 is 332 nM.

For `O=C(Cn1c(CCc2cccc(F)c2F)cc(=O)c2ccccc21)N(Cc1ccc(-c2ccc(C(F)(F)F)cc2)cc1)C1CCN(CCO)CC1`, the XC50 is 1320 nM.

For `CC(C)N1CCC(N(Cc2ccc(-c3ccc(C(F)(F)F)cc3)cc2)C(=O)Cn2c(CCc3cccc(F)c3F)cc(=O)c3cn(C)nc32)CC1`, the XC50 stood at 1170 nM.

In turn, `O=C(/C=C/c1ccc(Cl)c(Cl)c1)NCCCCCN1CCC(c2c[nH]c3cc(O)ccc23)CC1` returned an XC50 of 745 nM.

The compound `c1ccc(Oc2ccc(Nc3ccnc4cc(-c5cccc(CN6CCOCC6)c5)ccc34)cc2)cc1` registered an XC50 of 336 nM.

As to `N#Cc1ccc(N2CCN(Cc3ccc(-c4ccc(-c5nc6ccccc6[nH]5)s4)cc3)CC2)nc1`, the XC50 turned out to be 1080 nM.

For the compound `CCCCCCN1CCCN(Cc2ccc(C(=O)Nc3ccc(C)c(F)c3)cc2)CC1`, the XC50 is 331 nM.

`Cc1cc(-c2cccc(CNC3CCN(C)CC3)c2)ccc1S(=O)(=O)NC1CCC1` gave an XC50 of 731 nM.

Take `Cc1cc(NC(=O)c2cccs2)ccc1OC1CCN(Cc2ccc(C#N)cc2)C1` (configuration not stated): the XC50 was 847 nM.

Compound `O=S(=O)(NCCN1CCCC1)c1cccc(-c2ccc(CNCc3ccccc3)cc2)c1` yielded an XC50 of 1000 nM.

For the compound `CCN(CC)CCCCCNc1c2ccc(Cl)cc2nc2ccc(OC)cc12`, the XC50 was 50.6 nM.

On to `CCN(CC)c1nc(-c2ccccc2)cc(-c2ccccc2)c1C#N`, for which the XC50 came to 450 nM.

In turn, `Cc1cccc(OCC2CCN(c3ncc(C(=O)NC4CC4)cc3Cl)CC2)c1` had an XC50 of 1330 nM.

Take `O=[N+]([O-])c1cccc(CNCC2CCN(Cc3ccc(O)cc3)CC2)c1`: the XC50 amounted to 666 nM.

On to `O=C(/C=C/c1ccc(Cl)c(Cl)c1)NCCCCCN1CCCC(CNC(=O)Nc2ccc(C(F)(F)F)cc2)C1` (configuration not stated), for which the XC50 was found to be 668 nM.

`CN(C)CCN(Cc1ccccc1)c1ccc([N+](=O)[O-])cc1C(F)(F)F`: the XC50 was determined as 776 nM.

`C=Cc1c(C2CCN(CCCCNC(=O)c3ccc(-c4ccc(C#N)cc4)cc3)CC2)ccc2c1CCCC2`: the XC50 came out at 878 nM.

`OC(CNc1ccnc(Nc2ccc(Cl)cc2)n1)c1ccccc1C(F)(F)F` (configuration not stated) returned an XC50 of 788 nM.

In turn, `Cc1nnnn1-c1ccc(C(=O)N2CCC3(CC2)CN(Cc2ccc(Cl)c(Cl)c2)C(=O)O3)cc1` yielded an XC50 of 181 nM.

Turning to `CCC(C)CN1CCC(N(C)c2cc(NC(=O)c3ccc(F)cc3)ccn2)CC1` (configuration not stated), the XC50 stood at 977 nM.

The compound `O=C(Nc1ccc(-c2cccc(-c3nc4cc(F)ccc4[nH]3)c2)cc1)c1cnn2cccnc12` showed an XC50 of 647 nM.

In turn, `Cc1cc(C)cc(NC(=S)NCCCCN2CCN(c3cccc(Cl)c3)CC2)c1` had an XC50 of 1350 nM.

Regarding `Fc1ccc2cc(C=Cc3ccncc3)[nH]c2c1`, the XC50 is 617 nM.

`C[C@H](NC(=O)c1c(CN2CCC(N3CCCCC3=O)CC2)c(-c2cccs2)nc2ccccc12)C1CCCCC1` gave an XC50 of 898 nM.

`COc1ccc(CCN(C)CCOc2ccc(NC(=O)c3ccc([N+](=O)[O-])c4c(=O)c5ccccc5[nH]c34)cc2)cc1OC`: the XC50 is 927 nM.

For the compound `CCC(C)Oc1ccc(CCCON2C(N)=NC(N)=NC2(C)C)cc1` (configuration not stated), the XC50 worked out at 3.2 nM.

The compound `COC(=O)c1cccc(CNCc2ccc(-c3ccc(-c4nc5cc(C(F)(F)F)ccc5[nH]4)cc3)cc2)c1` came in with an XC50 of 298 nM.

Turning to `Cc1ccc(NC(=N)Nc2ncccc2OCc2c(F)cccc2Cl)cc1`, the XC50 worked out at 1190 nM.

Turning to `CC(C)c1ccc(C=CC(=O)NC2CCC(CN3CCC(c4c[nH]c5ccccc45)CC3)CC2)cc1` (configuration not stated), the XC50 is 807 nM.

`O=S(=O)(NC1CCC(CN2CCC(c3c[nH]c4ccccc34)CC2)CC1)c1ccc(Cl)c(Cl)c1` (configuration not stated) yielded an XC50 of 817 nM.

The compound `Cn1cc(CN2CCCC(COC(c3ccc(F)cc3)c3ccc(F)cc3)C2)cn1` (configuration not stated) gave an XC50 of 571 nM.

Consider `Cc1ccc(S(C)(=O)=O)cc1/C=C/C(=O)O`, for which the XC50 turned out to be 868 nM.

`CC(C)CNCc1cccc(-c2cccc(CN(CCN(C)C)C(=O)NCCc3ccccc3)c2)c1` gave an XC50 of 693 nM.

The compound `Oc1ccc(CCNc2nc(NCc3ccccc3-c3ccccc3)nc(N3CCCNCC3)n2)cc1` returned an XC50 of 877 nM.

`Oc1c(CNC2CCCCC2)cc(Cl)c2ccccc12` came in with an XC50 of 838 nM.

For `O=C1CCCN1CCCNCc1cccc(-c2cccc(-c3nc4cc(F)ccc4[nH]3)c2)c1`, the XC50 came to 598 nM.

For `Cc1cc(C(=O)NCc2ccc(-c3c(C)noc3C)cc2)n(-c2ccc(Cl)cc2)n1`, the XC50 turned out to be 531 nM.

In turn, `Fc1ccc2[nH]c(-c3ccc(-c4cccc(CN5CCN(CCN6CCOCC6)CC5)c4)cc3)nc2c1` had an XC50 of 145 nM.

As for `O=C(Nc1cccc(-c2cccc(-c3nc4cc(C(F)(F)F)ccc4[nH]3)c2)c1)c1c[nH]cn1`, the XC50 turned out to be 206 nM.

Consider `CCN1C(=O)N(CCC(C)C)C2(CCN(Cc3ccc(OC)cc3O)CC2)C1=O`, for which the XC50 is 868 nM.

As for `C=CCOC(=O)N1CCC(CNCc2cccc(-c3ccc(-c4nc5cccc(C)c5[nH]4)s3)c2)C1` (configuration not stated), the XC50 is 248 nM.

Take `CCC(C)c1ccc(NC(=O)Nc2ccc(Cn3ncc(N4CCCNCC4)c(Cl)c3=O)cc2)cc1` (configuration not stated): the XC50 came to 1030 nM.

Regarding `COc1ccc(CCN2CCC(Nc3nc4ccccc4n3CCc3ccc(OC)cc3)CC2)cc1`, the XC50 was 657 nM.

In the case of `CS(=O)(=O)NCCCNCc1cccc(-c2cccc(-c3nc4cc(F)ccc4[nH]3)c2)c1`, the XC50 was determined as 938 nM.

In the case of `COc1ccc2c(OC)c(CNCCCCCCNCc3ccc4cc(OC)ccc4c3OC)ccc2c1`, the XC50 came to 920 nM.

`Cc1cc(-c2cccc(CNCc3ccccc3)c2)ccc1S(=O)(=O)NCCN1CCCC1` had an XC50 of 732 nM.

In turn, `CCCCCCN1CCN(Cc2cccc(NC(=O)c3cccc(OCC)c3)c2)CC1` returned an XC50 of 1110 nM.

As to `CCCCC(=O)NC(c1cccs1)c1cc(Cl)c2cccnc2c1O` (configuration not stated), the XC50 was found to be 380 nM.

`O=C(/C=C/c1ccc(Cl)c(Cl)c1)NCCCCCN1CCC(NC(=O)NC2CCCC2)CC1` yielded an XC50 of 631 nM.

Consider `COCC(C)n1c(SCC(=O)Nc2cc(C(F)(F)F)ccc2Cl)nc2ccccc2c1=O` (configuration not stated), for which the XC50 was 130 nM.

Consider `COc1ccc(-c2ccc(NC(=O)c3cccc(C#N)c3)cc2)cc1CN1CCN(C)CC1`, for which the XC50 was found to be 713 nM.

Compound `COc1cc(Cc2cnc(N)nc2N)cc(OCCCCCCN)c1OC` displayed an XC50 of 190 nM.

The compound `CC(=O)Nc1ccc(C(=O)Nc2cccc(-c3ccc(-c4nc5cc(F)ccc5[nH]4)cc3)c2)cn1` yielded an XC50 of 174 nM.

The compound `O=c1c2ccccc2[nH]c2cc(Cl)ccc12` displayed an XC50 of 873 nM.

For `Oc1ccc2c(c1CNC1CCCCC1)CCCC2`, the XC50 worked out at 938 nM.

On to `N#CC(NC(=O)C=Cc1ccccc1)c1ccccc1` (configuration not stated), for which the XC50 stood at 181 nM.

Compound `CC(=O)CC(=O)N1CCN(c2ccccc2)CC1` showed an XC50 of 1060 nM.

In turn, `Cc1cc(NC(=O)[C@H](CC2CCCCC2)Nc2ccc(C#N)c3ccccc23)ccc1F` gave an XC50 of 684 nM.

As to `CNC(=O)Cc1ccc(C(=O)Nc2cccc(-c3cccc(-c4nc5cccc(C)c5[nH]4)c3)c2)cc1`, the XC50 came to 530 nM.

As for `CC(C)c1ccc(CN2CCCCC(NC(=O)c3cc(-c4cccc(F)c4)cs3)C2)cc1` (configuration not stated), the XC50 stood at 945 nM.

Regarding `Oc1ccc(CCNc2nc(NCCCOc3ccccc3-c3cccc(C(F)(F)F)c3)nc(N3CCNCC3)n2)cc1`, the XC50 was found to be 882 nM.

As to `O=C(Nc1cccc(C(F)(F)F)c1)Nc1ccc(Cl)c(C(F)(F)F)c1`, the XC50 was found to be 890 nM.

Turning to `N=C(N)Nc1nc(-c2ccc(NC(=O)Nc3cccc(-c4csc(NC(=N)N)n4)c3)cc2)cs1`, the XC50 came to 1010 nM.

`Clc1ccccc1CN1CCC(NCc2cccc(-n3ccnc3)c2)CC1` showed an XC50 of 786 nM.

Compound `Cc1cc(NC(=O)Nc2ccc3sccc3c2)c2ccccc2n1` returned an XC50 of 530 nM.

`O=C(NCCCN1CCOCC1)c1csc(Nc2ccc(Cl)c(Cl)c2)n1` showed an XC50 of 919 nM.

Compound `CNC(=O)c1ccc2nc(-c3ccc(-c4ccccc4)cc3)n(CC3CCN(CC4CCCC4)CC3)c2c1` returned an XC50 of 42.5 nM.

`Cc1c(Cl)cccc1S(=O)(=O)Nc1ccc(CCN2CCC(N)CC2)cc1` gave an XC50 of 1460 nM.

In turn, `COC(=O)Cn1c(C2CCN(CC3CCC(NC(=O)/C=C/c4ccc(Cl)c(Cl)c4)CC3)CC2)nc2ccccc21` (configuration not stated) yielded an XC50 of 1140 nM.

`CCc1c(C)nc(-n2nc(C)cc2NC(=O)c2ccc(OC)cc2OC)[nH]c1=O`: the XC50 stood at 827 nM.

`NC1CCN(c2nc(NCCc3ccc(O)cc3)nc(NCc3ccccc3-c3ccc(C(F)(F)F)cc3)n2)CC1` returned an XC50 of 746 nM.

Take `N=C(NCc1ccc(O)cc1)Nc1nc(-c2ccc(OCCCn3ccnc3)cc2)cs1`: the XC50 turned out to be 749 nM.

For `C#CCCOc1ccc2ccccc2c1CNCCCCCCNCc1c(OCCC#C)ccc2ccccc12`, the XC50 stood at 811 nM.

The compound `O=C(NCc1ccccc1)Nc1ccc(-c2cccc(-c3nc4cc(C(F)(F)F)ccc4[nH]3)c2)cc1` showed an XC50 of 662 nM.

In turn, `Cc1cccc2nc(-c3cccc(-c4ccc(NC(=O)Nc5ccc6c(c5)OCO6)cc4)c3)[nH]c12` registered an XC50 of 145 nM.

In turn, `O=C(Nc1ccccc1)Nc1cccc(-c2cccc(-c3nc4cc(F)ccc4[nH]3)c2)c1` displayed an XC50 of 176 nM.

`CCOc1cc(C(=O)N[C@@H](Cc2ccccc2)[C@H](O)CNCc2cc(OC)cc(OC)c2)cc(N2CCCS2(=O)=O)c1` returned an XC50 of 748 nM.

With `COc1ccc(NC(=O)Nc2ccc(-c3ccc(-c4nc5cccc(C)c5[nH]4)s3)cc2)cc1`, the XC50 was 175 nM.

`O=C(/C=C/c1ccc(Cl)c(Cl)c1)N1CCC(CN2CCC(c3c[nH]c4ccccc34)C(O)C2)CC1` (configuration not stated) gave an XC50 of 809 nM.

In turn, `O=C(Nc1ccccc1Oc1ccccc1)NC1CCN(c2ccnc3cc(Cl)ccc23)C1` (configuration not stated) returned an XC50 of 167 nM.

In the case of `COCCN1CCN(Cc2cccc(-c3ccc(-c4nc5ccccc5[nH]4)cc3)c2)CC1`, the XC50 is 761 nM.

`Oc1ccc(CN2CCN(CCOC(c3ccc(F)cc3)c3ccc(F)cc3)CC2)cc1Cl`: the XC50 came to 935 nM.

With `CCOC(=O)c1cnc2c(OC)cc(OC)c(Cl)c2c1Nc1cccc(C)c1C`, the XC50 was 310 nM.

In the case of `O=C(Nc1ccc(-c2cccc(-c3nc4cc(C(F)(F)F)ccc4[nH]3)c2)cc1)Nc1ccc(F)c(F)c1F`, the XC50 was 706 nM.

As for `Oc1cc(-c2nc(C3(CNCc4ccc(Cl)cc4)CCCCC3)[nH]c2-c2ccncc2)ccc1Cl`, the XC50 was found to be 125 nM.

`COc1ccccc1C1CCN(CCCCNC(=O)c2ccc(NC(=O)c3ccc(Cl)cc3)cc2)CC1`: the XC50 amounted to 244 nM.

Take `C#CC(C)(CO)N1CCCC1` (configuration not stated): the XC50 came out at 379 nM.
